In ChEMBL document CHEMBL4270597, “Donepezil-butylated hydroxytoluene (BHT) hybrids as Anti-Alzheimer's disease agents with cholinergic, antioxidant, and neuroprotective properties” (Eur J Med Chem, 2018):

What was measured:
PC-12 [1] = assay: Neuroprotective activity against H2O2-induced apoptosis in rat PC12 cells assessed as necrotic cells at 10 uM after 24 hrs by Annexin V-FITC/propidium iodide staining-based flow cytometry (reference value: 4.9%); type: functional
[2] = biological target: Cholinesterase (Equus caballus) (UniProt P81908); assay: Inhibition of equine serum BuChE at 100 uM using butyrylthiocholine iodide as substrate incubated for 5 mins followed by substrate addition measured after 180 secs by Ellman's method relative to control
Sequence of Cholinesterase (Equus caballus) (P81908 whole entry): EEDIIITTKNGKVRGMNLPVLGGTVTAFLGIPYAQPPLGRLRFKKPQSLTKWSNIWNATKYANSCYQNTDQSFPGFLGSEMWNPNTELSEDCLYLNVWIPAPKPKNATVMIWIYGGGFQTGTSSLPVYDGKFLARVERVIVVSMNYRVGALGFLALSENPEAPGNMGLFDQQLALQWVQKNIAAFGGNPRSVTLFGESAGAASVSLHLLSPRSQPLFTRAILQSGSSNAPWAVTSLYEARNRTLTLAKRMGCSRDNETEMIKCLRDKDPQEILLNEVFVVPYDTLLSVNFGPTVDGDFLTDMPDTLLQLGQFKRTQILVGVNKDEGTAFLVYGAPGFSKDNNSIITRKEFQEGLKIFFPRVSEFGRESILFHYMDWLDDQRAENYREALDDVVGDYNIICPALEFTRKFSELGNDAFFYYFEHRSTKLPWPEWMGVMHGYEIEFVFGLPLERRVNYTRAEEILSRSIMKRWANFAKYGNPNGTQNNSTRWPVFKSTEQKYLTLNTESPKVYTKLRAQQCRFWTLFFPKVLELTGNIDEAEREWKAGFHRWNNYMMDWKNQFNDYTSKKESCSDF

PC-12 [3] = assay: Neuroprotective activity against H2O2-induced apoptosis in rat PC12 cells assessed as late apoptotic cells at 5 uM after 24 hrs by Annexin V-FITC/propidium iodide staining-based flow cytometry (reference value: 25.3%); type: functional
PC-12 [4] = assay: Neuroprotective activity against H2O2-induced apoptosis in rat PC12 cells assessed as early apoptotic cells at 5 uM after 24 hrs by Annexin V-FITC/propidium iodide staining-based flow cytometry (reference value: 1.4%); type: functional
PC-12 [5] = assay: Neuroprotective activity against H2O2-induced apoptosis in rat PC12 cells assessed as viable cells at 5 uM after 24 hrs by Annexin V-FITC/propidium iodide staining-based flow cytometry (reference value: 68.4%); type: functional; details: PC-12, 24 h, read-out: Activity
PC-12 [6] = assay: Neuroprotective activity against H2O2-induced apoptosis in rat PC12 cells assessed as early apoptotic cells at 2.5 uM after 24 hrs by Annexin V-FITC/propidium iodide staining-based flow cytometry (reference value: 1.4%); type: functional
[7] = Antioxidant activity assessed as DPPH radical scavenging activity measured after 30 mins incubation in dark by UV-Visible spectrophotometric analysis; type: functional
PC-12 [8] = assay: Cytotoxicity against rat PC12 cells assessed as decrease in cell viability at 30 uM after 24 hrs by MTT assay; type: cell-based; details: pc-12, 24 h
[9] = biological target: Amyloid-beta precursor protein (Homo sapiens) (UniProt P05067); assay: Inhibition of AChE-induced amyloid beta 40 (unknown origin) aggregation at 100 uM by thioflavin-T fluorescence assay relative to control
Sequence of Amyloid-beta precursor protein (Homo sapiens) (P05067 whole entry): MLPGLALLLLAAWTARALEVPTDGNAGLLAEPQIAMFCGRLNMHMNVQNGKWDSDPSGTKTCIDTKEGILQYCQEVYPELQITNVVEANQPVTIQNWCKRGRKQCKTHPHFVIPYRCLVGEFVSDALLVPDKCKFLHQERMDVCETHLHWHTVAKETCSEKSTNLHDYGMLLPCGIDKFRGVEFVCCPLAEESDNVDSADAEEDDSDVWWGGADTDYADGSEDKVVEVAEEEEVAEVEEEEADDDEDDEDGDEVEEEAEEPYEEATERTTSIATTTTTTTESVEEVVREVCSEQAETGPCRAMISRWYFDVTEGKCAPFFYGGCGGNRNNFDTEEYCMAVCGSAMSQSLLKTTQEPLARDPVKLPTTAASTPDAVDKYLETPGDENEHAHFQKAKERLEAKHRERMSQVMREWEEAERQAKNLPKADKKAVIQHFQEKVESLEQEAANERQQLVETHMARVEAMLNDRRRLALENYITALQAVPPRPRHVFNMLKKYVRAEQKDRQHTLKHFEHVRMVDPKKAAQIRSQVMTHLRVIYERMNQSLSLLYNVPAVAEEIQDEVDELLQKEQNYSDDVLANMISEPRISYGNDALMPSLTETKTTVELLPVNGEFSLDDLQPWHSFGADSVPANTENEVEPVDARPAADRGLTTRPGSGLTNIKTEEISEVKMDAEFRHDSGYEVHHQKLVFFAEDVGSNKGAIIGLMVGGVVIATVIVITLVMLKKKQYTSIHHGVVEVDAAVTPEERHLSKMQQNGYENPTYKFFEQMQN

[10] = Antioxidant activity assessed as ABTS radical cation scavenging activity by measuring trolox equivalent antioxidant capacity measured at 6 mins; type: functional
[11] = Antioxidant activity assessed as trolox equivalent of AAPH-induced radical scavenging activity preincubated for 15 mins followed by AAPH addition measured every minute for 120 mins by ORAC-FL based fluorescein assay; type: functional
[12] = biological target: Amyloid-beta precursor protein (Homo sapiens) (UniProt P05067); assay: Inhibition of self-induced amyloid beta 42 (unknown origin) aggregation at 20 uM incubated for 46 to 48 hrs by thioflavin-T fluorescence assay relative to control
PC-12 [13] = assay: Reversal of H2O2-induced calcium overload in rat PC12 cells assessed as mean fluorescence intensity at 2.5 uM after 48 hrs by Fluo-3/AM probe based flow cytometry (reference value: 454014); type: functional
PC-12 [14] = assay: Reversal of H2O2-induced calcium overload in rat PC12 cells assessed as mean fluorescence intensity at 5 uM after 48 hrs by Fluo-3/AM probe based flow cytometry (reference value: 454014); type: functional
PC-12 [15] = assay: Reversal of H2O2-induced calcium overload in rat PC12 cells assessed as mean fluorescence intensity at 10 uM after 48 hrs by Fluo-3/AM probe based flow cytometry (reference value: 454014); type: functional
PC-12 [16] = assay: Reversal of H2O2-induced calcium overload in rat PC12 cells after 48 hrs by Fluo-3/AM probe based flow cytometry; type: functional, cell-based
BV-2 [17] = assay: Inhibition of LPS-induced intracellular ROS production in mouse BV2 cells assessed as mean fluorescence intensity at 5 uM incubated with LPS for 18 hrs followed by compound addition measured after 36 hrs by DCFH-DA probe based flow cytometry (reference value: 493530); type: functional
BV-2 [18] = assay: Inhibition of LPS-induced intracellular ROS production in mouse BV2 cells assessed as mean fluorescence intensity at 10 uM incubated with LPS for 18 hrs followed by compound addition measured after 36 hrs by DCFH-DA probe based flow cytometry (reference value: 493530); type: functional
BV-2 [19] = assay: Inhibition of LPS-induced intracellular ROS production in mouse BV2 cells assessed as mean fluorescence intensity incubated with LPS for 18 hrs followed by compound addition measured after 36 hrs by DCFH-DA probe based flow cytometry; type: functional, cell-based
[20] = Half life in Sprague-Dawley rat liver microsomes in presence of NADPH by UPLC/MS analysis; details: liver microsomes
Mus musculus [21] = assay: Acute toxicity in mouse assessed as body weight change at 677 to 2000 mg/kg, po measured continuously for first 4 hrs and intermittently for next 24 hrs and occasionally for 14 days; type: organism-based; details: in vivo
Mus musculus [22] = assay: Acute toxicity in mouse assessed as abnormal changes in liver at 2000 mg/kg, po measured continuously for first 4 hrs and intermittently for next 24 hrs and occasionally for 14 days by hematoxylin and eosin staining based microscopic method; type: organism-based; details: in vivo
Mus musculus [23] = assay: Acute toxicity in mouse assessed as abnormal changes in lung at 2000 mg/kg, po measured continuously for first 4 hrs and intermittently for next 24 hrs and occasionally for 14 days by hematoxylin and eosin staining based microscopic method; type: organism-based; details: in vivo
Mus musculus [24] = assay: Acute toxicity in mouse assessed as abnormal changes in kidney at 2000 mg/kg, po measured continuously for first 4 hrs and intermittently for next 24 hrs and occasionally for 14 days by hematoxylin and eosin staining based microscopic method; type: organism-based; details: in vivo
Mus musculus [25] = assay: Acute toxicity in mouse assessed as abnormal changes in brain at 2000 mg/kg, po measured continuously for first 4 hrs and intermittently for next 24 hrs and occasionally for 14 days by hematoxylin and eosin staining based microscopic method; type: organism-based; details: in vivo
Mus musculus [26] = assay: Reversal of scopolamine-induced memory impairment in ICR mouse assessed as increase in step-through latency time administered orally for 10 consecutive days and 60 mins prior to training trial followed by scopolamine challenge at 30 mins post dose measured 24 hrs after training trial by passive avoidance test; type: functional, organism-based
Mus musculus [27] = assay: Toxicity in ICR mouse assessed as change in body weight at 5 to 10 mg/kg, po administered for 10 consecutive days; type: organism-based; details: in vivo
Mus musculus [28] = assay: Toxicity in ICR mouse assessed as emesis at 5 to 10 mg/kg, po administered for 10 consecutive days; type: organism-based; details: in vivo
Mus musculus [29] = assay: Toxicity in ICR mouse assessed as mouse survival at 5 to 10 mg/kg, po administered for 10 consecutive days; type: organism-based; details: in vivo

CC(C)(C)c1cc(/C=C/C(=O)NCCC2CCN(Cc3ccccc3F)CC2)cc(C(C)(C)C)c1O
Activity (PC-12 [1]): 1.6%
inhibition [2]: 48%
Activity (PC-12 [3]): 9%
Activity (PC-12 [4]): 0.3%
viability at 5 µM (PC-12 [5]): 88.3%
Activity (PC-12 [6]): 0.2%
IC50 [7]: 55.9 µM
Activity (PC-12 [8]): Toxic
inhibition [9]: 40.1%
Activity (mmolequiv/mmol) [10]: 0.82
Activity (mmolequiv/mmol) [11]: 1.64
inhibition [12]: 43.5 to 56.7%
Flu intensity (PC-12 [13]): 347633
Flu intensity (PC-12 [14]): 251576
Flu intensity (PC-12 [15]): 157903
Activity (PC-12 [16]): Dose-dependent effect
Flu intensity (BV-2 [17]): 479700
Flu intensity (BV-2 [18]): 390948
inhibition (BV-2 [19]): Dose-dependent effect
half-life [20]: 89.3 min
Activity (Mus musculus [21]): Non-Toxic
Activity (Mus musculus [22]): Non-Toxic
Activity (Mus musculus [23]): Non-Toxic
Activity (Mus musculus [24]): Non-Toxic
Activity (Mus musculus [25]): Non-Toxic
Activity (Mus musculus [26]): Dose-dependent effect
Activity (Mus musculus [27]): Non-Toxic
Activity (Mus musculus [28]): Non-Toxic
Activity (Mus musculus [29]): Non-Toxic
